{"source": "paper PMC10780413", "about": "“Flavonoid Metabolites in Serum and Urine after the Ingestion of Selected Tropical Fruits” (Nutrients, 2024)", "key": {"xanthine oxidase": {"tested_on": "xanthine oxidase", "parameters": "method as in PMID 11118813", "conditions": "cited from earlier work"}, "[1]": {"test": "Bioavailability estimated from total urinary excretion and flavonoid content in fruits", "type": "in vivo", "conditions": "human, 200 g, 200 g edible part, fruit content from ref 10, read-out: Estimated bioavailability (total urinary amount as % of content in fruit)", "method": "Hollman et al. reported the bioavailability of quercetin from apples and pure quercetin-3-rutinose was only 30% compared to onions. Here, we assumed the flavonoids recovering in urine had passed the blood compartment. […] In the two-hundred grams of edible part, guava and pineapple contained about 6900 μg and 850 μg of quercetin, respectively. The total amount of urinary quercetin accounted for 13% and 80% of the quercetin content in the respective fruits. […] It should be noted that, the bioavailability of flavonoids may be underestimated because the biliary excretion of flavonoids was not taken into account. Moreover, the urinary methyl-conjugated favonoids were not quantified in this study."}, "[2]": {"conditions": "plasma; cited from earlier work"}, "[3]": {"type": "in vivo, human", "conditions": "after guava, pineapple, pomelo", "quoted_text": "Participants maintained a low-flavonoid diet (e.g., diet without vegetables, fruits, or chocolate) for two days and fasted for 8 h before the study to avoid any contribution from other foods containing flavonoids. Servings of fresh fruits of 200 g were given to the participants followed by 200 mL water. Beverages containing alcohol and caffeine were prohibited during the test period. Venous blood samples were collected before and 2, 4, 6, and 8 h after fruit ingestion. Serum was immediately prepared using centrifugation 233× g at 4 °C for 15 min, 200 mM ascorbic acid was added, and the samples were then stored at −20 °C until the analysis (within two weeks). Urine samples were collected at intervals of 0–4, 4–6, 6–8, 8–12, and 12–24 h in plastic bottles containing 70 mg of ascorbic acid per 100 mL of urine. The volume of urine sample was measured and then centrifuged at 233× g to remove the precipitate. […]\nFlavonoid analysis was measured by a modified method of Biessaga [15] and Mullen et al. [16]. […]"}, "[4]": {"conditions": "cited from earlier work"}, "[5]": {"parameters": "method as in PMID 11361045", "conditions": "cited from earlier work"}, "[6]": {"test": "Serum concentration of flavonoid metabolites after ingestion of 200 g fresh fruit (LC-MS/MS after enzyme hydrolysis)", "type": "in vivo, human", "conditions": "despite presence in the selected fruits", "source_text": "Three groups of six healthy subjects (male and female) between 20 and 30 years of age, with a body mass index between 18 and 25, were recruited for this study. Each group of participant received one kind of fruit. They were not alcohol drinkers, smokers, drug users, nor pregnant. They had not taken any medications for at least one month prior to the experiment. All participants underwent health checks for their hematological and biochemical profiles. There was no clinical presentation of gastrointestinal diseases (peptic ulcer), kidney diseases, liver diseases or jaundice, heart diseases, asthma, or diabetes mellitus. Levels of blood glucose before and 4 h after fruit ingestion were monitored in all subjects. […]\nParticipants maintained a low-flavonoid diet (e.g., diet without vegetables, fruits, or chocolate) for two days and fasted for 8 h before the study to avoid any contribution from other foods containing flavonoids. […] The volume of urine sample was measured and then centrifuged at 233× g to remove the precipitate. […]\nThe conjugated metabolites of flavonoids, glucuronic acid, and sulfate conjugates were determined in the serum and urine after hydrolyzing with β-glucuronidase (EC 3.2.1.31, bovine liver type B-I, Sigma, St Louis, MO, USA) and aryl sulfatase (EC 3.1.6.1, Merk, Darmstadt, Germany), respectively, at 37 °C for 16 h. […]"}, "[7]": {"parameters": "method as in PMID 14709621", "conditions": "in vitro study; cited from earlier work"}, "[8]": {"tested_on": "LPS-induced pulmonary injury", "parameters": "method as in PMID 37335159", "conditions": "in vitro and in vivo models; cited from earlier work"}, "[9]": {"parameters": "method as in PMID 25212140", "conditions": "after ingestion of rooibos tea; cited from earlier work"}}, "note": "Read-outs that look alike come from different tables or passages of the source.", "data": [{"compound": "O=C(O)[C@H]1O[C@@H](Oc2cc(-c3oc4cc(O)cc(O)c4c(=O)c3O)ccc2O)[C@H](O)[C@@H](O)[C@@H]1O", "note": "[3′-quercetin glucuronide]", "values": [{"measurement": "Inhibitory effect on xanthine oxidase", "setting": "xanthine oxidase", "result": "potent inhibitory effect"}]}, {"compound": "O=c1c(O)c(-c2cc(O)c(O)c(O)c2)oc2cc(O)cc(O)c12", "note": "[Myricetin, myricetin]", "values": [{"measurement": "bioavailability", "setting": "[1]; in vivo, from guava", "result": 5, "unit": "%"}, {"measurement": "bioavailability", "setting": "[1]; in vivo, from pineapple", "result": 10, "unit": "%"}, {"measurement": "Share that is glucuronide in the 3′-position", "setting": "[2]", "result": "20–40%"}, {"measurement": "Conjugated forms recovered in urine", "setting": "[3]", "result": "only detected in sulfate form"}]}, {"compound": "O=c1c(O)c(-c2ccc(O)c(O)c2)oc2cc(O)cc(O)c12", "note": "[Quercetin, quercetin]", "values": [{"measurement": "bioavailability", "setting": "[1]; urine, oral, from guava", "result": 13, "unit": "%"}, {"measurement": "bioavailability", "setting": "[1]; urine, oral, from pineapple", "result": 80, "unit": "%"}, {"measurement": "Share that is glucuronide in the 3′-position", "setting": "[2]", "result": "20–40%"}, {"measurement": "Bioavailability of quercetin compared to onions", "setting": "[4]; from apples", "result": 30, "unit": "%"}, {"measurement": "Tmax of quercetin", "setting": "[5]; after ingesting buckwheat tea", "result": 4.3, "unit": "h"}, {"measurement": "Tmax of quercetin", "setting": "[5]; after ingesting quercetin-3-rutioside", "result": 6.9, "unit": "h"}, {"measurement": "Tmax of quercetin", "setting": "[5]; after single ingestion of onion", "result": 0.7, "unit": "h"}, {"measurement": "Tmax of quercetin", "setting": "[5]; after single ingestion of quercetin-4’-glucoside", "result": 0.7, "unit": "h"}, {"measurement": "Conjugated forms recovered in urine", "setting": "[3]", "result": "found in both conjugated metabolites"}]}, {"compound": "O=c1cc(-c2ccc(O)cc2)oc2cc(O)cc(O)c12", "note": "[apigenin]", "values": [{"measurement": "Detection in serum or urine after fruit ingestion", "setting": "[6]", "result": "did not detect"}, {"measurement": "Phase I metabolism, major metabolite", "setting": "[7]", "result": "forms luteolin as a major metabolite"}]}, {"compound": "O=C(O)[C@H]1O[C@@H](Oc2c(-c3ccc(O)c(O)c3)oc3cc(O)cc(O)c3c2=O)[C@H](O)[C@@H](O)[C@@H]1O", "note": "[quercetin-3-glucuronide]", "values": [{"measurement": "Activity in LPS-induced pulmonary injury", "setting": "[8]", "result": "exerted antioxidant and anti-inflammatory activity"}, {"measurement": "Inhibitory effect on xanthine oxidase", "setting": "xanthine oxidase", "result": "not active"}]}, {"compound": "O=c1c(O)c(-c2ccc(O)cc2)oc2cc(O)cc(O)c12", "note": "[Kaempferol, kaempferol]", "values": [{"measurement": "bioavailability", "setting": "[1]; urine, oral, from pineapple", "result": 10, "unit": "%"}, {"measurement": "bioavailability", "setting": "[1]; urine, oral, from pomelo", "result": 1, "unit": "%"}, {"measurement": "Share that is glucuronide in the 3′-position", "setting": "[2]", "result": "20–40%"}, {"measurement": "Conjugated forms recovered in urine", "setting": "[3]", "result": "found in both conjugated metabolites"}]}, {"compound": "C[C@@H]1O[C@@H](OC[C@H]2O[C@@H](Oc3c(-c4ccc(O)c(O)c4)oc4cc(O)cc(O)c4c3=O)[C@H](O)[C@@H](O)[C@@H]2O)[C@H](O)[C@H](O)[C@H]1O", "note": "[quercetin-3-rutinose, reference compound]", "values": [{"measurement": "Bioavailability of quercetin compared to onions", "setting": "[4]; in vivo", "result": 30, "unit": "%"}]}, {"compound": "COc1ccc([C@@H]2CC(=O)c3c(O)cc(O)cc3O2)cc1O", "note": "[hesperetin]", "values": [{"measurement": "Detection in serum or urine after fruit ingestion", "setting": "[6]", "result": "did not detect"}]}, {"compound": "O=C(O)[C@H]1O[C@@H](Oc2ccc(-c3oc4cc(O)cc(O)c4c(=O)c3O)cc2O)[C@H](O)[C@@H](O)[C@@H]1O", "note": "[4′-quercetin glucuronide]", "values": [{"measurement": "Inhibitory effect on xanthine oxidase", "setting": "xanthine oxidase", "result": "potent inhibitory effect"}]}, {"compound": "O=c1cc(-c2ccc(O)c(O)c2)oc2cc(O)cc(O)c12", "note": "[Luteolin, luteolin]", "values": [{"measurement": "bioavailability", "setting": "[1]; urine, oral, from guava", "result": 5, "unit": "%"}, {"measurement": "bioavailability", "setting": "[1]; urine, oral, from pomelo", "result": 5, "unit": "%"}, {"measurement": "Tmax", "setting": "[9]", "result": "1.5 to 3", "unit": "h"}]}]}
